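Following 48 hours of exposure in 96-well plates, responses at five concentrations were used to interpolate endpoints linearly. GI50: concentration for 50% inhibition of growth. TGI is the concentration that stops growth completely.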
Assays:
Assay in all cases: inhibition of tumour cell growth, NCI panel, 48 h
786-0 renal = tested on: 786-0 renal
A498 renal = tested on: A498 renal
A549 NSCLC = tested on: A549 NSCLC
ACHN renal = tested on: ACHN renal
BT-549 breast = tested on: BT-549 breast
CAKI-1 renal = tested on: CAKI-1 renal
CCRF-CEM leukemia = tested on: CCRF-CEM leukemia
COLO 205 colon = tested on: COLO 205 colon
DU-145 prostate = tested on: DU-145 prostate
EKVX NSCLC = tested on: EKVX NSCLC
HCC-2998 colon = tested on: HCC-2998 colon
HCT-116 colon = tested on: HCT-116 colon
HCT-15 colon = tested on: HCT-15 colon
HL-60(TB) leukemia = tested on: HL-60(TB) leukemia
HOP-62 NSCLC = tested on: HOP-62 NSCLC
HOP-92 NSCLC = tested on: HOP-92 NSCLC
HS 578T breast = tested on: HS 578T breast
HT29 colon = tested on: HT29 colon
IGROV1 ovarian = tested on: IGROV1 ovarian
K-562 leukemia = tested on: K-562 leukemia
KM12 colon = tested on: KM12 colon
LOX IMVI melanoma = tested on: LOX IMVI melanoma
M14 melanoma = tested on: M14 melanoma
MALME-3M melanoma = tested on: MALME-3M melanoma
MCF7 breast = tested on: MCF7 breast
MDA-MB-231 breast = tested on: MDA-MB-231 breast
MDA-MB-435 = tested on: MDA-MB-435
MOLT-4 leukemia = tested on: MOLT-4 leukemia
NCI-H226 lung = tested on: NCI-H226 lung
NCI-H23 lung = tested on: NCI-H23 lung
NCI-H460 lung = tested on: NCI-H460 lung
NCI-H522 lung = tested on: NCI-H522 lung
NCI/ADR-RES ovarian = tested on: NCI/ADR-RES ovarian
OVCAR-3 ovarian = tested on: OVCAR-3 ovarian
OVCAR-4 ovarian = tested on: OVCAR-4 ovarian
OVCAR-5 ovarian = tested on: OVCAR-5 ovarian
OVCAR-8 ovarian = tested on: OVCAR-8 ovarian
PC-3 prostate = tested on: PC-3 prostate
RPMI-8226 leukemia = tested on: RPMI-8226 leukemia
RXF 393 renal = tested on: RXF 393 renal
SF-268 CNS = tested on: SF-268 CNS
SF-295 CNS = tested on: SF-295 CNS
SF-539 CNS = tested on: SF-539 CNS
SK-MEL-2 melanoma = tested on: SK-MEL-2 melanoma
SK-MEL-28 melanoma = tested on: SK-MEL-28 melanoma
SK-MEL-5 melanoma = tested on: SK-MEL-5 melanoma
SK-OV-3 ovarian = tested on: SK-OV-3 ovarian
SN12C renal = tested on: SN12C renal
SNB-19 CNS = tested on: SNB-19 CNS
SNB-75 CNS = tested on: SNB-75 CNS
SR leukemia = tested on: SR leukemia
SW-620 colon = tested on: SW-620 colon
T-47D breast = tested on: T-47D breast
TK-10 renal = tested on: TK-10 renal
U251 CNS = tested on: U251 CNS
UACC-257 melanoma = tested on: UACC-257 melanoma
UACC-62 melanoma = tested on: UACC-62 melanoma
UO-31 renal = tested on: UO-31 renal
MDA-N = tested on: MDA-N

CC(C)(C)N1CCC1CN (stereo not drawn)
GI50 (786-0 renal): > 100 µM | TGI (786-0 renal): > 100 µM | GI50 (A498 renal): > 100 µM | TGI (A498 renal): > 100 µM | GI50 (A549 NSCLC): > 100 µM | TGI (A549 NSCLC): > 100 µM | GI50 (ACHN renal): > 100 µM | TGI (ACHN renal): > 100 µM | GI50 (BT-549 breast): > 100 µM | TGI (BT-549 breast): > 100 µM | GI50 (CAKI-1 renal): > 100 µM | TGI (CAKI-1 renal): > 100 µM | GI50 (CCRF-CEM leukemia): > 100 µM | TGI (CCRF-CEM leukemia): > 100 µM | GI50 (COLO 205 colon): > 100 µM | TGI (COLO 205 colon): > 100 µM | GI50 (DU-145 prostate): > 100 µM | TGI (DU-145 prostate): > 100 µM | GI50 (EKVX NSCLC): > 100 µM | TGI (EKVX NSCLC): > 100 µM | GI50 (HCC-2998 colon): > 100 µM | TGI (HCC-2998 colon): > 100 µM | GI50 (HCT-116 colon): > 100 µM | TGI (HCT-116 colon): > 100 µM | GI50 (HCT-15 colon): > 100 µM | TGI (HCT-15 colon): > 100 µM | GI50 (HL-60(TB) leukemia): > 100 µM | TGI (HL-60(TB) leukemia): > 100 µM | GI50 (HOP-62 NSCLC): > 100 µM | TGI (HOP-62 NSCLC): > 100 µM | GI50 (HOP-92 NSCLC): > 100 µM | TGI (HOP-92 NSCLC): > 100 µM | GI50 (HS 578T breast): > 100 µM | TGI (HS 578T breast): > 100 µM | GI50 (HT29 colon): > 100 µM | TGI (HT29 colon): > 100 µM | GI50 (IGROV1 ovarian): > 100 µM | TGI (IGROV1 ovarian): > 100 µM | GI50 (K-562 leukemia): > 100 µM | TGI (K-562 leukemia): > 100 µM | GI50 (KM12 colon): > 100 µM | TGI (KM12 colon): > 100 µM | GI50 (LOX IMVI melanoma): > 100 µM | TGI (LOX IMVI melanoma): > 100 µM | GI50 (M14 melanoma): > 100 µM | TGI (M14 melanoma): > 100 µM | GI50 (MALME-3M melanoma): > 100 µM | TGI (MALME-3M melanoma): > 100 µM | GI50 (MCF7 breast): > 100 µM | TGI (MCF7 breast): > 100 µM | GI50 (MDA-MB-231 breast): > 100 µM | TGI (MDA-MB-231 breast): > 100 µM | GI50 (MDA-MB-435): > 100 µM | TGI (MDA-MB-435): > 100 µM | GI50 (MOLT-4 leukemia): > 100 µM | TGI (MOLT-4 leukemia): > 100 µM | GI50 (NCI-H226 lung): > 100 µM | TGI (NCI-H226 lung): > 100 µM | GI50 (NCI-H23 lung): > 100 µM | TGI (NCI-H23 lung): > 100 µM | GI50 (NCI-H460 lung): > 100 µM | TGI (NCI-H460 lung): > 100 µM | GI50 (NCI-H522 lung): > 100 µM | TGI (NCI-H522 lung): > 100 µM | GI50 (NCI/ADR-RES ovarian): > 100 µM | TGI (NCI/ADR-RES ovarian): > 100 µM | GI50 (OVCAR-3 ovarian): > 100 µM | TGI (OVCAR-3 ovarian): > 100 µM | GI50 (OVCAR-4 ovarian): > 100 µM | TGI (OVCAR-4 ovarian): > 100 µM | GI50 (OVCAR-5 ovarian): > 100 µM | TGI (OVCAR-5 ovarian): > 100 µM | GI50 (OVCAR-8 ovarian): > 100 µM | TGI (OVCAR-8 ovarian): > 100 µM | GI50 (PC-3 prostate): > 100 µM | TGI (PC-3 prostate): > 100 µM | GI50 (RPMI-8226 leukemia): > 100 µM | TGI (RPMI-8226 leukemia): > 100 µM | GI50 (RXF 393 renal): > 100 µM | TGI (RXF 393 renal): > 100 µM | GI50 (SF-268 CNS): > 100 µM | TGI (SF-268 CNS): > 100 µM | GI50 (SF-295 CNS): > 100 µM | TGI (SF-295 CNS): > 100 µM | GI50 (SF-539 CNS): > 100 µM | TGI (SF-539 CNS): > 100 µM | GI50 (SK-MEL-2 melanoma): > 100 µM | TGI (SK-MEL-2 melanoma): > 100 µM | GI50 (SK-MEL-28 melanoma): > 100 µM | TGI (SK-MEL-28 melanoma): > 100 µM | GI50 (SK-MEL-5 melanoma): > 100 µM | TGI (SK-MEL-5 melanoma): > 100 µM | GI50 (SK-OV-3 ovarian): > 100 µM | TGI (SK-OV-3 ovarian): > 100 µM | GI50 (SN12C renal): > 100 µM | TGI (SN12C renal): > 100 µM | GI50 (SNB-19 CNS): > 100 µM | TGI (SNB-19 CNS): > 100 µM | GI50 (SNB-75 CNS): > 100 µM | TGI (SNB-75 CNS): > 100 µM | GI50 (SR leukemia): > 100 µM | TGI (SR leukemia): > 100 µM | GI50 (SW-620 colon): > 100 µM | TGI (SW-620 colon): > 100 µM | GI50 (T-47D breast): > 100 µM | TGI (T-47D breast): > 100 µM | GI50 (TK-10 renal): > 100 µM | TGI (TK-10 renal): > 100 µM | GI50 (U251 CNS): > 100 µM | TGI (U251 CNS): > 100 µM | GI50 (UACC-257 melanoma): > 100 µM | TGI (UACC-257 melanoma): > 100 µM | GI50 (UACC-62 melanoma): > 100 µM | TGI (UACC-62 melanoma): > 100 µM | GI50 (UO-31 renal): > 100 µM | TGI (UO-31 renal): > 100 µM

CCOP(=O)(C=C=C1CCC2[C@@H]3CCc4cc(OC)ccc4C3CC[C@]12C)OCC (stereo partly drawn)
TGI (786-0 renal): 25.3 µM | TGI (A498 renal): 25.9 µM | TGI (A549 NSCLC): 18.4 µM | TGI (ACHN renal): 21.9 µM | TGI (CAKI-1 renal): 26.6 µM | TGI (COLO 205 colon): 22.7 µM | TGI (DU-145 prostate): 30 µM | TGI (EKVX NSCLC): 21.9 µM | TGI (HCC-2998 colon): 25.2 µM | TGI (HCT-116 colon): 19.2 µM | TGI (HCT-15 colon): 24.8 µM | TGI (HL-60(TB) leukemia): 2.87 µM | TGI (HOP-62 NSCLC): 30 µM | TGI (HOP-92 NSCLC): 22.5 µM | TGI (HS 578T breast): 40.3 µM | TGI (HT29 colon): 17.7 µM | TGI (IGROV1 ovarian): 23.6 µM | TGI (K-562 leukemia): 10.7 µM | TGI (KM12 colon): 26.2 µM | TGI (LOX IMVI melanoma): 24.8 µM | TGI (M14 melanoma): 24.3 µM | TGI (MALME-3M melanoma): 30.3 µM | TGI (MCF7 breast): 20.7 µM | TGI (MDA-MB-435): 25.5 µM | TGI (MDA-N): 26 µM | TGI (NCI-H226 lung): 21.6 µM | TGI (NCI-H23 lung): 20.8 µM | TGI (NCI-H460 lung): 27.6 µM | TGI (NCI-H522 lung): 18.9 µM | TGI (NCI/ADR-RES ovarian): 24.2 µM | TGI (OVCAR-3 ovarian): 24.2 µM | TGI (OVCAR-4 ovarian): 21.3 µM | TGI (OVCAR-5 ovarian): 31.4 µM | TGI (OVCAR-8 ovarian): 29.3 µM | TGI (PC-3 prostate): 15 µM | TGI (RXF 393 renal): 14.8 µM | TGI (SF-268 CNS): 28 µM | TGI (SF-295 CNS): 19.7 µM | TGI (SF-539 CNS): 29 µM | TGI (SK-MEL-2 melanoma): 26.5 µM | TGI (SK-MEL-28 melanoma): 23.9 µM | TGI (SK-MEL-5 melanoma): 14.2 µM | TGI (SK-OV-3 ovarian): 31.8 µM | TGI (SN12C renal): 23 µM | TGI (SNB-19 CNS): 28.3 µM | TGI (SNB-75 CNS): 25.5 µM | TGI (SW-620 colon): 29.2 µM | TGI (T-47D breast): 26.6 µM | TGI (TK-10 renal): 25.6 µM | TGI (U251 CNS): 25.5 µM | TGI (UACC-257 melanoma): 19.6 µM | TGI (UACC-62 melanoma): 18.2 µM

— PubChem BioAssay (NCI)
